Data as given in US20240398787A1, “TREATMENT OF MAJOR DEPRESSIVE DISORDER” (AbbVie Inc., priority 2021, published 2024).

System: patients with major depressive disorder (MDD)
Assay: MADRS total score, Clinical Study A (Study 301): cariprazine adjunctive to ADT, 6-week double-blind
Assay type: in vivo, human
Settings: for Proportion of patients with MADRS improvement ≥5 points / Proportion of patients with MADRS improvement ≥10 points / Proportion of patients with MADRS improvement ≥15 points / Proportion of patients with MADRS improvement ≥20 points / Proportion of patients with MADRS improvement ≥25 points: post hoc, end of week 6 (LOCF); for MADRS remission rate (total score ≤10) / MADRS response rate (≥50% score reduction from baseline): LOCF
Experimental: A global, multicenter, randomized, double-blind (DB), placebo-controlled, parallel-group, fixed-dose study compared cariprazine 1.5 mg/day and cariprazine 3 mg/day with placebo as an adjunctive treatment to ongoing ADT in outpatients with a diagnosis of MDD (via the Diagnostic and Statistical Manual of Mental Disorders, Fifth Edition [DSM-5]) having an inadequate response, as measured by the modified Antidepressant Treatment Response Questionnaire (ATRQ), to 1 to 3 antidepressants administered during the current episode at an adequate dose and adequate duration. Adequate dose was defined as a dose above the minimum labeled dose (per package insert). Adequate duration was defined as continuous ADT treatment for at least 6 weeks, with a minimum of 3 of 6 weeks above the minimal dose.
The study population included patients meeting criteria for MDD with a current major depressive episode of at least 8 weeks to less than 24 months in duration and an inadequate response to ongoing antidepressant therapy on the current episode. Both male and female patients of 18 to 65 years of age qualified for the study. Patients met the DSM-5 criteria for MDD based on the SCID-5, with a current major depressive episode of at least 8 weeks to less than 24 months in duration at the time of patient screening. A diagnosis of MDD with psychotic features was […].
Adequate dose was defined as a dose above the minimum labeled dose (per package insert). Adequate duration was defined as continuous antidepressant therapy treatment for at least 6 weeks, with a minimum of 3 of 6 weeks above the minimum dose.
The study consisted of up to 14 days screening (with up to an additional 7 days of needed) and washout of prohibited medications followed by 6 weeks of double-blind (DB) treatment followed by a 4-week safety follow-up. At the end of the screening period, patients meeting the entry criteria for the study were randomized (1:1:1) to 1 of 3 double-blind treatment groups. Study treatment groups were: cariprazine 1.5 mg/day+antidepressant therapy and cariprazine 3 mg/day+antidepressant therapy. The control group received matching placebo+antidepressant therapy.
Dosage/Dose Regimen: Investigational product (cariprazine or placebo) in the form of capsules packaged in blister packs will be provided. No investigational product was administered during the screening/washout period; patients continued the same antidepressant and dose they were on at screening. Patients were taking more than one antidepressant at screening, regardless of the indication, discontinued all other antidepressants prior to baseline (Visit 2). During the double-blind treatment period (6 weeks), patients were administered 1 capsule orally per day in addition to their ongoing ADT. Patients in the 1.5 mg/day+ADT arm were administered 1.5 mg+ADT starting at Visit 2 (Week 0). Patients in the 3 mg/day+ADT arm were administered 1.5 mg+ADT starting at Visit 2 (Week 0) for 2 weeks and then titrate to 3 mg/day+ADT starting at Visit 4 (Week 2). Patients were supplied with identically appearing capsules of either cariprazine 1.5 mg, cariprazine 3 mg, or placebo.
A randomized, double-blind, placebo-controlled, multicenter trial with 759 participants was conducted in United States, Bulgaria, Estonia, Germany, Hungary, Ukraine, and the United Kingdom. Following a screening period of up to 14 days (with up to an additional 7 days if needed), which included a washout of prohibited psychotropic medications except for ongoing ADT, patients with a partial response to their antidepressant monotherapy were randomized into three treatment groups (1:1:1). One group received cariprazine 1.5 mg/d+ADT, one received cariprazine 3.0 mg/d+ADT, and one group received placebo+ADT. All participants randomized to cariprazine began on 1.5 mg/d; cariprazine 1.5 mg/d patients remained at that dosage, while cariprazine 3.0 mg/d patients received 1.5 mg/d for 2 weeks and increased to 3.0 mg/d on day 15. […]

[1] = 1.5 mg/d + ADT, week 6, ANCOVA and LOCF
[2] = 3.0 mg/d + ADT, week 6, ANCOVA and LOCF
[3] = change from baseline to week 6, dose not stated

CN(C)C(=O)N[C@H]1CC[C@H](CCN2CCN(c3cccc(Cl)c3Cl)CC2)CC1 [Cariprazine, trans-N-{4-[2-[4-(2,3-dichlorophenyl)piperazin-1-yl]ethyl]cyclohexyl}-N′,N′-dimethylurea]
Proportion of patients with MADRS improvement ≥5 points (1.5 mg/d + ADT): 84%
Proportion of patients with MADRS improvement ≥10 points (1.5 mg/d + ADT): 64%
Proportion of patients with MADRS improvement ≥15 points (1.5 mg/d + ADT): 46%
Proportion of patients with MADRS improvement ≥20 points (1.5 mg/d + ADT): 33%
Proportion of patients with MADRS improvement ≥25 points (1.5 mg/d + ADT): 19%
Mean (SD) MADRS score at week 6 (1.5 mg/d + ADT, week 6): 17.4 (9.1)
LS mean change from baseline in MADRS total score [1]: −14.4
LSMD vs placebo, MADRS total score [1]: −2.4
MADRS remission rate (total score ≤10) (1.5 mg/d + ADT, week 6): 25.2%
MADRS response rate (≥50% score reduction from baseline) (1.5 mg/d + ADT, week 6): 44.0%
LS Mean (SE) change from baseline, MADRS total score (1.5 mg/day + ADT, week 1, MMRM): −4.4 (0.5)
LSMD (95% CI) vs placebo + ADT, MADRS total score (1.5 mg/day + ADT, week 1, MMRM): −0.6 (−1.5; 0.5)
MADRS remission, odds ratio vs placebo (95% CI) (1.5 mg/day + ADT, week 2): 0.9 (0.4, 1.8)
MADRS remissions (total score ≤10) (1.5 mg/day + ADT, week 2): 13 (5.2) n (%)
MADRS responders (≥50% score reduction) (1.5 mg/day + ADT, week 2): 43 (17.2) n (%)
MADRS response, odds ratio vs placebo (95% CI) (1.5 mg/day + ADT, week 2): 1.2 (0.7, 2.0)
LS Mean (SE) change from baseline, MADRS total score (1.5 mg/day + ADT, week 2, MMRM): −8.6 (0.6)
LSMD (95% CI) vs placebo + ADT, MADRS total score (1.5 mg/day + ADT, week 2, MMRM): −1.2 (−2.5; 0)
MADRS remission, odds ratio vs placebo (95% CI) (1.5 mg/day + ADT, week 4): 1.2 (0.7, 1.9)
MADRS remissions (total score ≤10) (1.5 mg/day + ADT, week 4): 37 (14.8) n (%)
MADRS responders (≥50% score reduction) (1.5 mg/day + ADT, week 4): 88 (35.2) n (%)
MADRS response, odds ratio vs placebo (95% CI) (1.5 mg/day + ADT, week 4): 1.6 (1.1, 2.3)
LS Mean (SE) change from baseline, MADRS total score (1.5 mg/day + ADT, week 4, MMRM): −12.4 (0.6)
LSMD (95% CI) vs placebo + ADT, MADRS total score (1.5 mg/day + ADT, week 4, MMRM): −2.9 (−4.3; −1.5)
MADRS remissions (total score ≤10) (1.5 mg/day + ADT, week 6): 63 (25.2) n (%)
MADRS responders (≥50% score reduction) (1.5 mg/day + ADT, week 6): 110 (44.0) n (%)
LSMD vs placebo, MADRS total score (1.5 mg/day + ADT, week 6, MMRM): −2.5 (−4.2; −0.9)
LSMD vs placebo, MADRS total score (1.5 mg/day + ADT, week 6, MMRM, listed as CAR): −2.5
LSMD vs placebo, MADRS total score (1.5 mg/day + ADT, week 6, MMRM, listed as cariprazine): −2.5
LS mean change from baseline in MADRS total score (1.5 mg/day + ADT, week 6, MMRM, mITT): −14.1 (0.7)
LS mean change from baseline in MADRS total score (1.5 mg/day + ADT, week 6, MMRM, mITT, listed as cariprazine): −14.1
Proportion of patients with MADRS improvement ≥5 points (3.0 mg/d + ADT): 84%
Proportion of patients with MADRS improvement ≥10 points (3.0 mg/d + ADT): 66%
Proportion of patients with MADRS improvement ≥15 points (3.0 mg/d + ADT): 43%
Proportion of patients with MADRS improvement ≥20 points (3.0 mg/d + ADT): 24%
Proportion of patients with MADRS improvement ≥25 points (3.0 mg/d + ADT): 11%
Mean (SD) MADRS score at week 6 (3 mg/d + ADT, week 6): 18.6 (8.9)
LS mean change from baseline in MADRS total score [2]: −13.3
LSMD vs placebo, MADRS total score [2]: −1.3
MADRS remission rate (total score ≤10) (3.0 mg/d + ADT, week 6): 16.7%
MADRS response rate (≥50% score reduction from baseline) (3.0 mg/d + ADT, week 6): 39.3%
LS Mean (SE) change from baseline, MADRS total score (3 mg/day + ADT, week 1, MMRM): −3.9 (0.5)
LSMD (95% CI) vs placebo + ADT, MADRS total score (3 mg/day + ADT, week 1, MMRM): −0.1 (−1.0; 0.8)
MADRS remission, odds ratio vs placebo (95% CI) (3 mg/day + ADT, week 2): 0.5 (0.25, 1.23)
MADRS remissions (total score ≤10) (3 mg/day + ADT, week 2): 9 (3.6) n (%)
MADRS responders (≥50% score reduction) (3 mg/day + ADT, week 2): 39 (15.5) n (%)
MADRS response, odds ratio vs placebo (95% CI) (3 mg/day + ADT, week 2): 1.1 (0.7, 1.8)
LS Mean (SE) change from baseline, MADRS total score (3 mg/day + ADT, week 2, MMRM): −7.8 (0.6)
LSMD (95% CI) vs placebo + ADT, MADRS total score (3 mg/day + ADT, week 2, MMRM): −0.5 (−1.7; 0.8)
MADRS remission, odds ratio vs placebo (95% CI) (3 mg/day + ADT, week 4): 0.6 (0.4, 1.1)
MADRS remissions (total score ≤10) (3 mg/day + ADT, week 4): 22 (8.7) n (%)
MADRS responders (≥50% score reduction) (3 mg/day + ADT, week 4): 60 (23.8) n (%)
MADRS response, odds ratio vs placebo (95% CI) (3 mg/day + ADT, week 4): 0.9 (0.6, 1.3)
LS Mean (SE) change from baseline, MADRS total score (3 mg/day + ADT, week 4, MMRM): −10.6 (0.6)
LSMD (95% CI) vs placebo + ADT, MADRS total score (3 mg/day + ADT, week 4, MMRM): −1.0 (−2.4; 0.4)
MADRS remissions (total score ≤10) (3 mg/day + ADT, week 6): 42 (16.7) n (%)
MADRS responders (≥50% score reduction) (3 mg/day + ADT, week 6): 99 (39.3) n (%)
LSMD vs placebo, MADRS total score (3 mg/day + ADT, week 6, MMRM): −1.5 (−3.2; 0.1)
LSMD vs placebo, MADRS total score (3 mg/day + ADT, week 6, MMRM, listed as CAR): −1.5
LS mean change from baseline in MADRS total score (3 mg/day + ADT, week 6, MMRM, mITT): −13.1
LSMD vs placebo, MADRS individual item "apparent sadness" [3]: −0.2
LSMD vs placebo, MADRS individual item "inability to feel" [3]: −0.3
LSMD vs placebo, MADRS individual item "lassitude" [3]: −0.3
LSMD vs placebo, MADRS individual item "pessimistic thoughts" [3]: −0.3
LSMD vs placebo, MADRS individual item "reduced appetite" [3]: −0.3
LSMD vs placebo, MADRS individual item "reported sadness" [3]: −0.4
LSMD vs placebo, MADRS individual item "suicidal thoughts" [3]: −0.1
